Laboratory results: patent US20260248972A1, “DUAL RECEPTOR TARGETING RADIOLIGANDS AND USES THEREOF RELATED APPLICATIONS” (priority 2022, published 2026)
pIC50: −log10 of the molar value. Where two headings read alike, the source gives them in different places.

Tests used:
CCK2R = target: T1, CCK2R (Rattus norvegicus, UniProt P30553); assay: Competitive cell-binding assay on AR42J cells with 125I-C3 as competitive ligand; details: for pIC50: AR42J cells, 125I-C3 competitive ligand, 37° C. 1 h, read-out: CCK2R/IC50
T1 construct: host or cells: AR42J cells
T1 sequence (P30553 1-452): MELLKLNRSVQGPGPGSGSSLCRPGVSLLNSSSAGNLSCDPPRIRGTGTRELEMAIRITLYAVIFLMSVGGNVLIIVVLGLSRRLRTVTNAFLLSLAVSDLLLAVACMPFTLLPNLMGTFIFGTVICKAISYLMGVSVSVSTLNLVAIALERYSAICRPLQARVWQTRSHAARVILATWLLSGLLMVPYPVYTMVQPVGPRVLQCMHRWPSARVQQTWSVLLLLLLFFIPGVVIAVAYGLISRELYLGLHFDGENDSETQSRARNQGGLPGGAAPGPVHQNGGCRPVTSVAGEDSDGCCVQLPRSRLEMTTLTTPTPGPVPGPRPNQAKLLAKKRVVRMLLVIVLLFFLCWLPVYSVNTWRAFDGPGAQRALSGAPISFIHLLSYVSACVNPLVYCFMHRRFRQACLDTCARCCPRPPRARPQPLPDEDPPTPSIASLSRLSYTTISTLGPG
Experimental: (§1) AR42J cells (ATCC) were maintained in RPMI-1640 medium (Gibco) supplemented with 15% fetal bovine serum (Gibco) and 1% penicillin-streptomycin (BI) at 37° C. in a humidified incubator with 5% CO2. The culture medium was replaced with fresh medium every 2-3 days. Experiments were performed with cells at 70-80% confluence.
(§2) Binding Affinity Tested by Using ^125I-Labeled Competitive Ligands.
(§3) The binding affinities of test compounds were determined by a competitive cell-binding assay using ^125I-C1 and ^125I-C3 as the competitive ligand. The suspended AR42J cells at a density of 1~3×10^6 cells/mL in binding buffer (RPMI-1640 medium supplemented with 0.25% bovine serum albumin) were transferred to a MultiScreen-DV Filter Plate (Millipore) with 100 μL per well except the blank group where the binding buffer was used instead. The cells were then incubated with ^125I-C1 and ^125I-C3 (0.02 μCi/well) in the presence of increasing concentrations (0-10000 nM) of test compounds at 37° C. for 1 h (n=3). The final volume in each well was maintained at 200 μL and insufficient volume was adjusted by the binding buffer. After the 1 h incubation, unbound ^125I-competitive ligands were removed by filtration using a Multiscreen vacuum manifold (Millipore) followed by rinses with the binding buffer (3 times). The filters were collected, and their radioactivity were individually measured by γ counter (2480 WIZARD2, PerkinElmer). The best-fit IC50value (inhibitory concentration when 50% of the bound ^125I-C1 and ^125l I-C3 on cells were displaced) of test compounds were calculated by fitting the data with nonlinear regression using GraphPad Prism 8.0.1.

SSTR2 = target: T2, SSTR2 (Rattus norvegicus, UniProt P30680); assay: Competitive cell-binding assay on AR42J cells with 125I-C1 as competitive ligand
T2 construct: host or cells: AR42J cells
T2 sequence (P30680 whole entry): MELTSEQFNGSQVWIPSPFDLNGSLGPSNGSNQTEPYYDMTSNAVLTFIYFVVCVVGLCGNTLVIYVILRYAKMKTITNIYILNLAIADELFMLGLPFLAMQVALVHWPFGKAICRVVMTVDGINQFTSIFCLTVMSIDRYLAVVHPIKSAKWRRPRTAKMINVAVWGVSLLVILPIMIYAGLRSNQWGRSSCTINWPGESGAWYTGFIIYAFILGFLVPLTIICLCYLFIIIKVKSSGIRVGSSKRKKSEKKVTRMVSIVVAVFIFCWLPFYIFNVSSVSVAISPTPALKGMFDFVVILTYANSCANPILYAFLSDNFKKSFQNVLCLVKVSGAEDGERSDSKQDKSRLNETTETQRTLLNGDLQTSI
Experimental: as §1, §2, §3

Structure (SMILES) | Relative Binding Affinity CCK2R (CCK2R; based on mean IC50, C-2 = 1.00) | pIC50 (SSTR2; AR42J cells, 125I-C1 competitive ligand, 37° C. 1 h, read-out: SSTR2/IC50) | Relative Binding Affinity SSTR2 (SSTR2; based on mean IC50, C-1 = 1.00) | pIC50 (CCK2R) | Relative Binding Affinity CCK2R (CCK2R) | Relative Binding Affinity SSTR2 (SSTR2)
CCCC[C@H](NC(=O)[C@H](Cc1c[nH]c2ccccc12)NC(=O)CNC(=O)[C@H](Cc1ccc(O)cc1)NC(=O)[C@H](C)NC(=O)[C@@H](CCC(=O)O)NC(=O)[C@@H](CCC(=O)O)NC(=O)[C@@H](CCC(=O)O)NC(=O)[C@@H](CCC(=O)O)NC(=O)[C@@H](CCC(=O)O)NC(=O)[C@@H](CCC(=O)O)NC(=O)CN1CCN(CC(=O)O)CCN(CC(=O)O)CCN(CC(=O)O)CC1)C(=O)N[C@@H](CC(=O)O)C(=O)N[C@@H](Cc1ccccc1)C(N)=O [Compound C-2, DOTA-e-e-e-e-e-e-AYGW-Nle-DF-NH2, reference compound] | 1.00 | – | <0.001 | 7.77 | – | –
C[C@@H](O)[C@H](NC(=O)[C@@H]1CSSC[C@H](NC(=O)[C@@H](Cc2ccccc2)NC(=O)[C@H](CCCCNC(=O)[C@H](CCC(=O)O)NC(=O)c2cccc(NC(=O)N[C@@H]3CN(C4CCCCC4)c4ccccc4N(CC(=O)C(C)(C)C)C3=O)c2)NC(=O)CN2CCN(CC(=O)O)CCN(CC(=O)O)CCN(CC(=O)O)CC2)C(=O)N[C@@H](Cc2ccc(O)cc2)C(=O)N[C@H](Cc2c[nH]c3ccccc23)C(=O)N[C@@H](CCCCN)C(=O)N[C@@H]([C@@H](C)O)C(=O)N1)C(N)=O [Compound I-4, DOTA-K(-E-Z360)-f[CYwKTC]T-NH2] | 53.1 | – | 0.90 | – | – | –
C[C@@H](O)[C@@H]1NC(=O)[C@H](CCCCN)NC(=O)[C@@H](Cc2c[nH]c3ccccc23)NC(=O)[C@H](Cc2ccc(O)cc2)NC(=O)[C@@H](NC(=O)[C@@H](Cc2ccccc2)NC(=O)COCCOCCNC(=O)[C@H](CCCCNC(=O)[C@H](CCC(=O)O)NC(=O)c2cccc(NC(=O)N[C@@H]3CN(C4CCCCC4)c4ccccc4N(CC(=O)C(C)(C)C)C3=O)c2)NC(=O)CN2CCN(CC(=O)O)CCN(CC(=O)O)CCN(CC(=O)O)CC2)CSSC[C@@H](C(=O)N[C@H](CO)[C@@H](C)O)NC1=O [Compound I-5, DOTA-K(-E-Z360)-OEG-f[CYwKTC]-Thr(ol)] | 216 | – | 0.10 | – | – | –
C[C@@H](O)[C@@H]1NC(=O)[C@H](CCCCN)NC(=O)[C@@H](Cc2c[nH]c3ccccc23)NC(=O)[C@H](Cc2ccc(O)cc2)NC(=O)[C@@H](NC(=O)[C@@H](Cc2ccccc2)NC(=O)[C@H](CCCCNC(=O)[C@H](CCC(=O)O)NC(=O)c2cccc(NC(=O)N[C@@H]3CN(C4CCCCC4)c4ccccc4N(CC(=O)C(C)(C)C)C3=O)c2)NC(=O)CN2CCN(CC(=O)O)CCN(CC(=O)O)CCN(CC(=O)O)CC2)CSSC[C@@H](C(=O)N[C@H](CO)[C@@H](C)O)NC1=O [Compound I-6, DOTA-K(-E-Z360)-f[CYwKTC]-Thr(ol)] | 19.7 | – | 0.20 | – | – | –
C[C@@H](O)[C@H](NC(=O)[C@@H]1CSSC[C@H](NC(=O)[C@@H](Cc2ccccc2)NC(=O)COCCOCCNC(=O)[C@H](CCCCNC(=O)CCC(C(=O)O)N2CCN(CC(=O)O)CCN(CC(=O)O)CCN(CC(=O)O)CC2)NC(=O)COCCOCCNC(=O)c2cccc(NC(=O)N[C@@H]3CN(C4CCCCC4)c4ccccc4N(CC(=O)C(C)(C)C)C3=O)c2)C(=O)N[C@@H](Cc2ccc(O)cc2)C(=O)N[C@H](Cc2c[nH]c3ccccc23)C(=O)N[C@@H](CCCCN)C(=O)N[C@@H]([C@@H](C)O)C(=O)N1)C(=O)O (stereo partly shown) [Compound I-31, Z360- OEG- K(DOTAGA)- OEG- f[CYwKTC]T- OH] | – | – | – | – | 8.8 | 4.75
C[C@@H](O)[C@H](NC(=O)[C@@H]1CSSC[C@H](NC(=O)[C@@H](Cc2ccccc2)NC(=O)COCCOCCNC(=O)[C@H](CCCCNC(=O)COCCOCCNC(=O)c2cccc(NC(=O)N[C@@H]3CN(C4CCCCC4)c4ccccc4N(CC(=O)C(C)(C)C)C3=O)c2)NC(=O)CN2CCN(CC(=O)O)CCN(CC(=O)O)CCN(CC(=O)O)CC2)C(=O)N[C@@H](Cc2ccc(O)cc2)C(=O)N[C@H](Cc2c[nH]c3ccccc23)C(=O)N[C@@H](CCCCN)C(=O)N[C@@H]([C@@H](C)O)C(=O)N1)C(=O)O [Compound I-43, DOTA-K(-OEG-Z360)-OEG-f[CYwKTC]T-OH] | – | – | – | – | 4.0 | 0.61

Continued, in another order:

Relative Binding Affinity CCK2R (CCK2R; based on mean IC50, C-2 = 1.00) | pIC50 (SSTR2; AR42J cells, 125I-C1 competitive ligand, 37° C. 1 h, read-out: SSTR2/IC50) | Relative Binding Affinity SSTR2 (SSTR2; based on mean IC50, C-1 = 1.00) | Structure (SMILES) | pIC50 (CCK2R) | Relative Binding Affinity CCK2R (CCK2R) | Relative Binding Affinity SSTR2 (SSTR2)
12.1 | 9.11 | 3.60 | C[C@@H](O)C(NC(=O)[C@@H]1CSSC[C@H](NC(=O)[C@@H](Cc2ccccc2)NC(=O)COCCOCCNC(=O)[C@H](CCCCNC(=O)CC[C@H](NC(=O)CNC(=O)c2cccc(NC(=O)N[C@@H]3CN(C4CCCCC4)c4ccccc4N(CC(=O)C(C)(C)C)C3=O)c2)C(=O)O)NC(=O)COCCOCCNC(=O)CCC(C(=O)O)N2CCN(CC(=O)O)CCN(CC(=O)O)CCN(CC(=O)O)CC2)C(=O)N[C@@H](Cc2ccc(O)cc2)C(=O)N[C@H](Cc2c[nH]c3ccccc23)C(=O)N[C@@H](CCCCN)C(=O)N[C@@H]([C@@H](C)O)C(=O)N1)C(=O)O (stereo in doubt) [Compound I-20, DOTAGA- OEG- K(-gE- G- Z360)- OEG- f[CYwKTC]T- OH] | 8.85 | – | –
275 | – | 0.78 | C[C@@H](O)[C@H](NC(=O)[C@@H]1CSSC[C@H](NC(=O)[C@@H](Cc2ccccc2)NC(=O)COCCOCCNC(=O)[C@H](CCCCNC(=O)CC[C@H](NC(=O)CNC(=O)c2cccc(NC(=O)N[C@@H]3CN(C4CCCCC4)c4ccccc4N(CC(=O)C(C)(C)C)C3=O)c2)C(=O)O)NC(=O)CC[C@H](NC(=O)CC[C@H](NC(=O)CN2CCN(CC(=O)O)CCN(CC(=O)O)CCN(CC(=O)O)CC2)C(=O)O)C(=O)O)C(=O)N[C@@H](Cc2ccc(O)cc2)C(=O)N[C@H](Cc2c[nH]c3ccccc23)C(=O)N[C@@H](CCCCN)C(=O)N[C@@H]([C@@H](C)O)C(=O)N1)C(=O)O [Compound I-10, DOTA-gE-gE-K(-gE-G-Z360)-OEG-f[CYwKTC]T-OH] | – | – | –
255 | – | 0.61 | C[C@@H](O)[C@H](NC(=O)[C@@H]1CSSC[C@H](NC(=O)[C@@H](Cc2ccccc2)NC(=O)COCCOCCNC(=O)[C@H](CCCCNC(=O)CN2CCN(CC(=O)O)CCN(CC(=O)O)CCN(CC(=O)O)CC2)NC(=O)CC[C@H](NC(=O)COCCOCCNC(=O)CC[C@H](NC(=O)[C@H](CCC(=O)O)NC(=O)c2cccc(NC(=O)N[C@@H]3CN(C4CCCCC4)c4ccccc4N(CC(=O)C(C)(C)C)C3=O)c2)C(=O)O)C(=O)O)C(=O)N[C@@H](Cc2ccc(O)cc2)C(=O)N[C@H](Cc2c[nH]c3ccccc23)C(=O)N[C@@H](CCCCN)C(=O)N[C@@H]([C@@H](C)O)C(=O)N1)C(=O)O [Compound I-12, (Z360)-E-gE-OEG-gE-K(DOTA)-OEG-f[CYwKTC]T-OH] | – | – | –
71.1 | – | 0.29 | C[C@@H](O)[C@H](NC(=O)[C@@H]1CSSC[C@H](NC(=O)[C@@H](Cc2ccccc2)NC(=O)COCCOCCNC(=O)[C@H](CCCCNC(=O)CC[C@H](NC(=O)CNC(=O)c2cccc(NC(=O)N[C@@H]3CN(C4CCCCC4)c4ccccc4N(CC(=O)C(C)(C)C)C3=O)c2)C(=O)O)NC(=O)COCCOCCNC(=O)COCCOCCNC(=O)CC[C@H](NC(=O)CC[C@H](NC(=O)CN2CCN(CC(=O)O)CCN(CC(=O)O)CCN(CC(=O)O)CC2)C(=O)O)C(=O)O)C(=O)N[C@@H](Cc2ccc(O)cc2)C(=O)N[C@H](Cc2c[nH]c3ccccc23)C(=O)N[C@@H](CCCCN)C(=O)N[C@@H]([C@@H](C)O)C(=O)N1)C(=O)O [Compound I-15, DOTA-gE-gE-OEG-OEG-K(-gE-G-Z360)-OEG-f[CYwKTC]T-OH] | – | – | –
17.3 | – | 0.16 | C[C@@H](O)[C@H](NC(=O)[C@@H]1CSSC[C@H](NC(=O)[C@@H](Cc2ccccc2)NC(=O)COCCOCCNC(=O)COCCOCCNC(=O)[C@H](CCCCNC(=O)CCC(C(=O)O)N2CCN(CC(=O)O)CCN(CC(=O)O)CCN(CC(=O)O)CC2)NC(=O)COCCOCCNC(=O)COCCOCCNC(=O)CC[C@H](NC(=O)CC[C@H](NC(=O)c2cccc(NC(=O)N[C@@H]3CN(C4CCCCC4)c4ccccc4N(CC(=O)C(C)(C)C)C3=O)c2)C(=O)O)C(=O)O)C(=O)N[C@@H](Cc2ccc(O)cc2)C(=O)N[C@H](Cc2c[nH]c3ccccc23)C(=O)N[C@@H](CCCCN)C(=O)N[C@@H]([C@@H](C)O)C(=O)N1)C(=O)O (stereo partly shown) [Compound I-17, (Z360)- gE- gE- OEG- OEG- K(DOTAGA)- OEG- OEG- f[CYwKTC]T- OH (] | – | – | –
